Activity calls are given as the source filed them. No cut-off for these calls is given here.
Legend:
[1] = molecular target: T1, Interstitial collagenase (Homo sapiens) (UniProt P03956); assay: Inhibition of human recombinant fibroblast collagenase (MMP-1) at 10e-4 M (No significant activity)
T1 sequence (whole entry): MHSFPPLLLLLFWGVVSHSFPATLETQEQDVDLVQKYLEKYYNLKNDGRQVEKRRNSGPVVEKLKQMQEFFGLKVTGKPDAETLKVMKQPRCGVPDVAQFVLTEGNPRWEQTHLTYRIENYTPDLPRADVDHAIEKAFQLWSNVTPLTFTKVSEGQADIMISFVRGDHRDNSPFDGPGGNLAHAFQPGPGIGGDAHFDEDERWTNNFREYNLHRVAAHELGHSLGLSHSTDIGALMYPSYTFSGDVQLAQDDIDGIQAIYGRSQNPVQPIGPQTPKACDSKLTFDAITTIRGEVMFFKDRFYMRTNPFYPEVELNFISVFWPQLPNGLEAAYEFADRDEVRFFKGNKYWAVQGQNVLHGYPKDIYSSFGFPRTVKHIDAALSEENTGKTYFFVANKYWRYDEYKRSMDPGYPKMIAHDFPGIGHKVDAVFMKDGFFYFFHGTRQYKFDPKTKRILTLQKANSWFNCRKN

[2] = molecular target: Matrix metalloproteinase-9 (Homo sapiens) (UniProt P14780); assay: Inhibition of human recombinant Matrix metalloprotease-9 at 10e-4 M (No significant activity)
[3] = molecular target: 72 kDa type IV collagenase (Homo sapiens) (UniProt P08253); assay: Inhibition of human recombinant gelatinase-A (MMP-2) at 10e-4 M (No significant activity)
72 kDa type IV collagenase (Homo sapiens), sequence (P08253 110-660 limits assumed): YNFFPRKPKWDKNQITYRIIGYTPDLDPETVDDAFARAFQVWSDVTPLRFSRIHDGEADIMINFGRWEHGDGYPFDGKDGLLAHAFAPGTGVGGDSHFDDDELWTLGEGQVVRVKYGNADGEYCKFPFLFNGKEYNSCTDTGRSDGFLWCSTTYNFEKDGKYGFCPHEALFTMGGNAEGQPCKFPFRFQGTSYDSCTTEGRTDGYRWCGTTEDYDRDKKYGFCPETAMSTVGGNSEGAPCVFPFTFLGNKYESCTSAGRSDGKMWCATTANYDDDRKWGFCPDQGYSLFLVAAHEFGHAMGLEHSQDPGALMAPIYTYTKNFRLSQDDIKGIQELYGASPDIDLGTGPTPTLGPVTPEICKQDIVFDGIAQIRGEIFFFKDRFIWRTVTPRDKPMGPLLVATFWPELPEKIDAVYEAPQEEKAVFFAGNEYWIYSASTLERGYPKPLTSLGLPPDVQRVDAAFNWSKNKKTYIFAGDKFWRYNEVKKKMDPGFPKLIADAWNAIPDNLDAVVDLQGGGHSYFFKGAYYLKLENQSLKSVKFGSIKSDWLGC

Matrix metalloproteinase-9 (Homo sapiens), sequence (P14780 whole entry): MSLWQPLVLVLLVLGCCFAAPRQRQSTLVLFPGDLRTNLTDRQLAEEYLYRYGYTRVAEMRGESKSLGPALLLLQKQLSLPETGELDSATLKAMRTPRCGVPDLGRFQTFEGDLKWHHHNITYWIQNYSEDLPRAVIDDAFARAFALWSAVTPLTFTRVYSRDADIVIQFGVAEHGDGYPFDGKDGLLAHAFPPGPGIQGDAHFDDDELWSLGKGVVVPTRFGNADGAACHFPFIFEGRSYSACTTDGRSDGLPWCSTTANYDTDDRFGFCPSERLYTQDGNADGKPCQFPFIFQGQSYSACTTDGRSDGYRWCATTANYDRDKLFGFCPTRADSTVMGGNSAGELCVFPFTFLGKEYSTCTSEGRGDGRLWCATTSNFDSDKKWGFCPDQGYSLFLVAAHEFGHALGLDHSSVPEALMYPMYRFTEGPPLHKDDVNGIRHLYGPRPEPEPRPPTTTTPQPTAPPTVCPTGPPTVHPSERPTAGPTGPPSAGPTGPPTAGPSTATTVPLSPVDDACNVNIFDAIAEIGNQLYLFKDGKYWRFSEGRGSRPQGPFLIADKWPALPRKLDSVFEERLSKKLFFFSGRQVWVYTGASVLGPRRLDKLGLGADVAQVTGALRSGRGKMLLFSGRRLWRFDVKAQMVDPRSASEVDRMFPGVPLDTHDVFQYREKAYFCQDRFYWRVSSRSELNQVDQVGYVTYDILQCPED

Row | Activity [1] | Activity [2] | Activity [3] | SMILES
1 | inactive | inactive | inactive | CNC(=O)[C@H](Cc1c[nH]c2ccccc12)NC(=O)[C@H]1CCC[C@@H](P(=O)(O)O)N1
2 | inactive | inactive | inactive | CNC(=O)[C@H](Cc1c[nH]c2ccccc12)NC(=O)[C@@H]1CCC[C@@H](P(=O)(O)O)N1
